# Measurements published in patent US20230286955A1, “INHIBITORS OF THEM1” (Cornell University, priority 2022, published 2023).
# “Also recorded” adds a separate entry of the source.
# Columns and labels:
# [1] = tested on: primary brown adipocytes cultured from A-Them1Tg mice; test: Oxygen consumption rates (OCR) in primary brown adipocytes; format: cell-based, mouse
# Experimental: Primary brown adipocytes from 4- to 6-w old wild type and A-Them1Tg mice were isolated, cultured and differentiated as described (Okada et al., 2016). In brief, BAT tissues harvested from 5- to 7-w old mice were pooled, minced and digested with collagenase B (Sigma-Aldrich; St. Louis, MO), and dispersed in growth medium [DMEM/F12 containing 4.5 g/L glucose, 0.1 mM pyruvate, 10 mM HEPES (Thermo Fisher; Waltham, MA) supplemented with 1% penicillin/streptomycin, 1% GlutaMAX (Thermo Fisher; Waltham, MA) and 20% fetal bovine serum]. […] Upon achieving confluence, pre-adipocytes were induced to differentiate for 8 d by culturing for the first 48 h in differentiation medium [DMEM/F12 containing 4.5 g/L glucose, 0.1 mM pyruvate, 10 mM HEPES (Thermo Fisher; Waltham, MA) supplemented with 1% penicillin/streptomycin, 1% GlutaMAX (Thermo Fisher; Waltham, MA), 10% fetal bovine serum, bovine insulin (5 μg/mL; Thermo Fisher; Waltham, MA) and rosiglitazone (1 μM; Sigma Aldrich; St. Louis, MO)] supplemented with dexamethasone (5 μM; Sigma Aldrich; St. Louis, MO) and 3-isobutyl-1-methylxanthine (0.5 mM; Sigma Aldrich; St. Louis, MO) and differentiation medium thereafter. On differentiation d 6 to 8, the adipocyte differentiation media was supplemented with L-(−)-norepinephrine (+) bitartrate (Calbiochem; EMD Millipore; Billerica, MA). Primary brown adipocytes were maintained in a cell culture incubator at 37° C. with 5% CO2.
# In primary brown adipocytes on d 8 of differentiation, values of OCR were measured in the presence or absence of compounds using a Seahorse XF96 extracellular flux analyzer (Agilent Technologies; Santa Clara, CA). […] OCR values were measured before and after the exposure of cells to NE (1 μM) and normalized with total live cell count calculated through staining with NucRed Live probe (Thermo Fisher; Waltham, MA) measured at 715 nm emission and 623 nm excitation using a SpectraMax i3X plate reader (Molecular Devices; San Jose; CA).
# primary hepatocytes [2] = test: Oxygen consumption rates (OCR) in primary hepatocytes after palmitate; format: cell-based, mouse; settings: compound 33 μM, palmitate-BSA 300 μM
# Experimental: (§1) Primary hepatocytes cultured were prepared from 6- to 14-w old wild type, L-Them1Tg and Them1^−/− mice following anesthesia with ketamine and xylazine. Livers were perfused through the portal vein with 20 mL of liver perfusion medium (Thermo Fisher; Walham, MA) followed by 40 mL of liver digestion medium (Thermo Fisher; Walham, MA). Primary hepatocytes were gently disrupted from the liver capsule into hepatocyte wash medium (Thermo Fisher; Waltham, MA), filtered through a 70 μm cell strainer and then spun down at 30×g for 4 min at 4° C. Primary hepatocytes were cultured in William's Medium E (Thermo Fisher; Waltham, MA) supplemented with 1% penicillin/streptomycin and 10% fetal bovine serum. […] Cultured primary hepatocytes were maintained in a cell culture incubator at 37° C. with 5% CO2.
# In primary hepatocytes, values of OCR were measured using a Seahorse XF24 extracellular flux analyzer (Agilent Technologies; Santa Clara, CA). […] OCR values were measured before and after the exposure of cells to palmitic acid conjugated with fatty acid-free BSA (300 μM) and normalized with total live cell count calculated through staining with NucRed Live probe (Thermo Fisher; Waltham, MA) measured at 715 nm emission and 623 nm excitation using a SpectraMax i3X plate reader (Molecular Devices; San Jose; CA).
# primary hepatocytes [3] = test: Glucose production in primary hepatocytes; format: cell-based, mouse; settings: compound 33 μM, pyruvate 2 mM, lactate 20 mM
# Experimental: as §1
# Rates of glucose production were determined as previously described with modifications (Kawano et al., 2014). Primary hepatocytes cultured from wild type, L-Them1Tg and Them1^−/' mice were serum-starved in Medium 199 (Thermo Fisher; Waltham, MA) for 16 h and then washed twice with PBS. […] Glucose concentrations in the media were measured enzymatically through a commercial kit according to the manufacturer's instructions using a NEO plate reader (BioTek, Winooski, VT).
# [4] = target: T1, recombinant His-tagged human Them1 (Homo sapiens, UniProt Q8WXI4); test: Assay for reversibility of Them1 inhibition (dialysis); format: biochemical; settings: compounds […], C14-CoA 25 μM, 18 h dialysis
# T1 construct: Reaction labeling recombinant full-length Them1; made in house; host or cells: E. coli Shuffle T7
# T1 sequence (Q8WXI4 14-594 isoform Q8WXI4-2 limits assumed): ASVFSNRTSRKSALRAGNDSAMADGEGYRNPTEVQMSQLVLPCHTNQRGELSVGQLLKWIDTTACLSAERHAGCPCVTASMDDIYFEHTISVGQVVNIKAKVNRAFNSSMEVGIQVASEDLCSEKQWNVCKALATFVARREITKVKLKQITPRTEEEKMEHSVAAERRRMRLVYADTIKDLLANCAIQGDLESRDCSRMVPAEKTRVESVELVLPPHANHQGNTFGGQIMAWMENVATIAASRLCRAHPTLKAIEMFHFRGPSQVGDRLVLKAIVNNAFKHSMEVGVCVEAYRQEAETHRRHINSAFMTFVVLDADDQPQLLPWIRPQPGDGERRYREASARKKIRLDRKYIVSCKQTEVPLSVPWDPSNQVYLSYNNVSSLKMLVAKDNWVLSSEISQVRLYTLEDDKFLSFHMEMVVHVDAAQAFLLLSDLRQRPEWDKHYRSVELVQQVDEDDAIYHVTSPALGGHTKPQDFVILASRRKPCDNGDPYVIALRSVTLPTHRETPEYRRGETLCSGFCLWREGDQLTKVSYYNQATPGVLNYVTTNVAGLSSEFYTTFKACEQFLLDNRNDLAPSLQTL
# Experimental: Three buffer changes were performed over the extent of the 18 h dialysis. Post-dialysis reactions were incubated with fresh C14-CoA (25 μM) for 60 min at 22° C. Ebselen (Sigma Aldrich; St. Louis, MO) was used as a (−) control.
# recombinant mouse Them1 = target: T2, recombinant mouse Them1 (Mus musculus, UniProt Q8VHQ9); test: Acot activity assay, mouse Them1; format: biochemical; settings: in words (FIG. 6B)
# T2 construct: made in house; host or cells: E. coli BL21 (DE3)
# T2 sequence (Q8VHQ9 21-594): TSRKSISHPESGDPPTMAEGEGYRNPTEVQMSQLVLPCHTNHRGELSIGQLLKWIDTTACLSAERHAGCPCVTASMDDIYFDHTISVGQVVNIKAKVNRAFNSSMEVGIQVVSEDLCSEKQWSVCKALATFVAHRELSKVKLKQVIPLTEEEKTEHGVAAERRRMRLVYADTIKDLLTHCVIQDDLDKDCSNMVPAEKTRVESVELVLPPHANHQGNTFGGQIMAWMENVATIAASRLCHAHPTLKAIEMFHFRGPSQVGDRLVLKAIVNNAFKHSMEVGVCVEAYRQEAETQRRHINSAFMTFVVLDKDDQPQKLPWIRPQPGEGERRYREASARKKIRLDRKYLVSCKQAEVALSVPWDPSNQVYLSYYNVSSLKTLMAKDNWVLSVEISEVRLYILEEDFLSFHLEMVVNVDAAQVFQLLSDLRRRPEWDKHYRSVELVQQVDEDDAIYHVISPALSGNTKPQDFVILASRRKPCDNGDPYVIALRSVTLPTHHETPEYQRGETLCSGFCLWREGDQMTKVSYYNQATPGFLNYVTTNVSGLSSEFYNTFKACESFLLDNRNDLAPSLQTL
# Source text: (Zhang et al., 1999). Values are show in the following Table.
# in vitro = settings: C57BL/6, mouse, primary brown adipocytes
# Experimental: Cytotoxicities of compounds were determined using a CellTiter-Glo® Luminescent Cell Viability Assay, which measures concentrations of ATP liberated from viable cells (Promega; Madison, WI). […] Tamoxifen (50 μM) was used as a (+) control. CellTiter-Glo reagent (10 μL) was added to each well and incubated on an orbital shaker for 10 min at 22° C. to induce cell lysis and stabilize the luminescent signal. Relative luminescent units (RLU) were determined using a NEO plate reader (BioTek, Winooski, VT).
# full-length human Acot12 = full-length human Acot12 (Homo sapiens, UniProt Q8WYK0); test: biochemical
# Experimental: (§2) Reaction labeling recombinant full-length Them1, Them1l-ΔSTART, START or Acot12 with Monolith RED-Tris-NTA (NanoTemper Technologies; San Francisco, CA) were performed according to the manufacturer's instructions in buffer containing PBS plus 0.5% Tween-20 for 60 min at 22° C. with a molar dye: protein ratio=1:1. […] Working concentrations of compounds were prepared by diluting in microscale thermophoresis buffer. Reactions consisting of 100 nM of fluorescently labeled recombinant protein (full-length Them1, Them1-ΔSTART, START or Acot12) and compounds were loaded onto standard Monolith NT.115 Capillaries (NanoTemper Technologies; San Francisco, CA). Fluorescence was measured using a Monolith NT.115 instrument (NanoTemper Technologies; San Francisco, CA) at 22° C. with instrument parameters adjusted to 40% LED power and medium microscale thermophoresis power. Data were fitted by non-linear regression in GraphPad Prism (GraphPad Software; San Diego, CA).
# Them1-ΔSTART = target: T3, Them1-ΔSTART (Homo sapiens, UniProt Q8WXI4); test: Microscale thermophoresis binding, Them1-ΔSTART; settings: for binding to Them1-ΔSTART: in words; for Kd: read-out: Kd, Thioesterase domains (Them1-ΔSTART ), MST, 100 nM labeled protein, 22° C.
# T3 sequence (Q8WXI4 43-329 isoform Q8WXI4-2 limits assumed): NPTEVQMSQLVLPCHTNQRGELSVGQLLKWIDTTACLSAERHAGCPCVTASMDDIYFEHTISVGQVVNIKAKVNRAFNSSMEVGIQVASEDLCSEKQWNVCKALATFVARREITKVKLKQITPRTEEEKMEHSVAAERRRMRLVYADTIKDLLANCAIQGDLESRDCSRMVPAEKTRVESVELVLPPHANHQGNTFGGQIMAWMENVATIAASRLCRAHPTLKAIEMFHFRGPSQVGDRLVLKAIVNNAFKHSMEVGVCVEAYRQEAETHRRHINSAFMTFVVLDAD
# Experimental: (§3) Data represent the mean (s.e.m.) of triplicate determinations. Where not visible, error bars are contained within the symbol sizes.
# as §2
# full-length Them1 [5] = target: T4, full-length Them1 (Homo sapiens, UniProt Q8WXI4); test: biochemical
# T4 sequence (Q8WXI4 14-594 isoform Q8WXI4-2 limits assumed): T1 sequence (Q8WXI4 14-594 isoform Q8WXI4-2 limits assumed)
# Experimental: as §3, §2
# Them1 START domain = target: T5, Them1 START domain (Homo sapiens, UniProt Q8WXI4); test: Microscale thermophoresis binding, START domain; settings: in words
# T5 sequence (Q8WXI4 339-594 isoform Q8WXI4-2): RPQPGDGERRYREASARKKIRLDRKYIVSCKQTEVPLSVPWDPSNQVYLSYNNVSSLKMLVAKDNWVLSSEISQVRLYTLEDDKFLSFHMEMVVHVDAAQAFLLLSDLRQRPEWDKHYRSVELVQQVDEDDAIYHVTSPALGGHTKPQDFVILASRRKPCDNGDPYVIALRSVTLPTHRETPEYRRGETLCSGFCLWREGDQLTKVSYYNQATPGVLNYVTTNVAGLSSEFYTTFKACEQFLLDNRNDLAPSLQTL
# Source text: A synthetic gene encoding the START domain was cloned into a pNIC28-Bsa4 bacterial expression vector (Novagen, EMD Biosciences; Madison, WI), which introduced an in-frame N-terminal His6 fusion containing a tobacco etch virus protease cleavage site to facilitate tag removal. The pNIC28-Bsa4-START domain plasmid was co-transformed into E. coli BL21 (DE3) (New England Biolabs; Ipswich, MA) competent cells with a pG-Tf2 vector (encoding groES-gorEL-tig chaperones) and then grown to an A600 of 0.5-0.7 in terrific broth. Under conditions of shaking (250 rpm) at 18° C., chaperones were induced by the addition of 5 ng/mL tetracycline HCl for 60 min followed by START domain induction upon the addition of 0.5 mM isoproyl β-D-thiogalactoside for ˜18 h. The bacteria were harvested by centrifugation, and then lysed by sonication with 20 mM Tris-Cl (pH 7.4), 500 mM NaCl, 25 mM imidazole, 5% glycerol, lysozyme, Dnase A, 0.1% Triton X-100, 5 mM β-mercaptoethanol and 100 μM phenylmethylsulfonyl fluoride. Following centrifugation of the bacterial lysate, recombinant START was purified by FPLC using a His affinity column (HisTrap HP column; GE Healthcare; Waukesha, WI). The soluble fraction containing recombinant START was applied to the column after equilibration with 20 mM Tris-Cl (pH 7.4), 500 mM NaCl, 25 mM imidazole and 5% glycerol, and then washed with the same buffer. Recombinant START was eluted from the HisTrap HP column using 20 mM Tris-Cl (pH 7.4), 500 mM NaCl, 500 mM imidazole and 5% glycerol followed by tobacco etch virus protease-mediated His-tag cleavage at 4° C. overnight with simultaneous dialysis into 20 mM Tris-Cl (pH 7.4), 500 mM NaCl and 5% glycerol. Recombinant START was further purified using a Superdex column (HiLoad 16/60 Superdex 75 column; GE Healthcare; Waukesha, WI) in 20 mM Tris-Cl (pH 7.4), 500 mM NaCl and 5% glycerol. Assessment of purity, protein concentration and storage of single use aliquots of recombinant START were performed as described above for recombinant Them1.
# Reaction labeling recombinant full-length Them1, Them1l-ΔSTART, START or Acot12 with Monolith RED-Tris-NTA (NanoTemper Technologies; San Francisco, CA) were performed according to the manufacturer's instructions in buffer containing PBS plus 0.5% Tween-20 for 60 min at 22° C. with a molar dye: protein ratio=1:1. […] Working concentrations of compounds were prepared by diluting in microscale thermophoresis buffer. […] Fluorescence was measured using a Monolith NT.115 instrument (NanoTemper Technologies; San Francisco, CA) at 22° C. with instrument parameters adjusted to 40% LED power and medium microscale thermophoresis power. […]
# full-length Them1 [6] = target: T4, full-length Them1; test: Microscale thermophoresis binding, full-length Them1; settings: in words
# Experimental: as §3, §2
# full-length human Acot12, sequence (Q8WYK0 whole entry, the tested form may be a part): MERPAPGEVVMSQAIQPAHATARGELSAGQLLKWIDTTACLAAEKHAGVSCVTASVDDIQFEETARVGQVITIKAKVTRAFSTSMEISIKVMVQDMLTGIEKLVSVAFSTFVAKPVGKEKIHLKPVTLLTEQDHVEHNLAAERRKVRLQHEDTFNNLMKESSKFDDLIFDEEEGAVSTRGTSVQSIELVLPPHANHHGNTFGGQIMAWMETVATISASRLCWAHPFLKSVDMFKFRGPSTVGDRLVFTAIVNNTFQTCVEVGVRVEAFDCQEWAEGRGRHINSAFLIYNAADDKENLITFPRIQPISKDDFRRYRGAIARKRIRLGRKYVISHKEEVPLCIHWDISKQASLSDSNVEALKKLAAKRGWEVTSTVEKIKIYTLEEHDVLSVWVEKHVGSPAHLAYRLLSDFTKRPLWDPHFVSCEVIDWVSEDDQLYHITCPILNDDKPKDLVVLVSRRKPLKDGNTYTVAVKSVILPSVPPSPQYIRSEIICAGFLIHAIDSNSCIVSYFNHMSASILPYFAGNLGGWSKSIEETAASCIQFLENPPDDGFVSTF
Structure (SMILES),"OCR in A-Them1Tg brown adipocytes, reversal of Them1 suppression ([1]; NE-stimulated, compounds at 10 μM (FIGS. 3B-C, 8B-C))",OCR following palmitate stimulation in L-Them1Tg hepatocytes (primary hepatocytes [2]),OCR following palmitate stimulation in Them1−/− hepatocytes (primary hepatocytes [2]),glucose production in L-Them1Tg hepatocytes (primary hepatocytes [3]),Them1 activity after overnight dialysis (reversibility of inhibition) [4],inhibition of mouse Them1 activity compared to human Them1 (recombinant mouse Them1),CC50 at 48 h (in vitro) [µM],Kd (full-length human Acot12) [µM],binding to Them1-ΔSTART (Them1-ΔSTART),Kd (Them1-ΔSTART) [µM],"OCR in A-Them1Tg brown adipocytes, reversal of Them1 suppression ([1]; compounds at their in vitro IC50 concentrations, 30 min, NE 1 μM, vs wild type (DMSO))",Kd (full-length Them1 [5]) [µM],binding affinity to the START domain compared to the parent U1 compound (Them1 START domain),Kd / binding affinity to full-length Them1 compared to the parent U1 compound (full-length Them1 [6])
"CCOC(=O)N1CCN(C(c2cccs2)c2c(C)[nH]c3ccccc23)CC1 (stereo not drawn) [Compound U1, ethyl 4-((2-methyl-1H-indol-3-yl)(thiophen-2-yl)methyl)piperazine-1-carboxylate]",reversed the suppressive effects of Them1 activity,reversed this suppressive effect of Them1,did not increase OCR values,reduced,restored Them1 activity,comparable potencies,> 125,> 125,lacked the capacity to bind; also recorded: lacked binding,> 125,,,,
"Cc1[nH]c2ccccc2c1C(c1cccs1)N1CCN(C(=O)C(C)C)CC1 (stereo not drawn) [Compound U11, 2-methyl-1-(4-((2-methyl-1H-indol-3-yl)(thiophen-2-yl)methyl)piperazin-1-yl)propan-1-one]",,,,,,,> 125,> 125,did not bind,> 125,reversed the suppressive effects of Them1 on values of OCR,0.87,tighter,tighter
